Assay results published in patent US8183262B2, “Pyridine derivatives as mGluR2 antagonists” (Hoffmann-La Roche Inc., priority 2007, dated 2012).

Row | SMILES | melting point [°C]
1 | Nc1ccc(-c2cn(-c3nc(-c4ccc(Cl)c(Cl)c4)cc(C(F)(F)F)n3)cn2)cn1 [Example 102, 5-{1-[4-(3,4-Dichloro-phenyl)-6-trifluoromethyl-pyrimidin-2-yl]-1H-imidazol-4-yl}-pyridin-2-ylamine] | 282.5
2 | Cc1cc(-c2cc(C(F)(F)F)nc(-n3cnc(-c4ccc(N)nc4)c3)n2)ccc1Cl [Example 104, 5-{1-[4-(4-Chloro-3-methyl-phenyl)-6-trifluoromethyl-pyrimidin-2-yl]-1H-imidazol-4-yl}-pyridin-2-ylamine] | 276
3 | Cc1cc(-c2cc(C(F)(F)F)nc(-c3cccc(-c4ccc(N)nc4)c3)n2)ccc1Cl [Example 105, 5-{3-[4-(4-Chloro-3-methyl-phenyl)-6-trifluoromethyl-pyrimidin-2-yl]-phenyl}-pyridin-2-ylamine] | 168.5
4 | Cc1cc(-c2cc(C(F)(F)F)nc(-c3nc(-c4cccc(S(N)(=O)=O)c4)no3)n2)ccc1Cl [Example 106, 3-{5-[4-(4-Chloro-3-methyl-phenyl)-6-trifluoromethyl-pyrimidin-2-yl]-[1,2,4]oxadiazol-3-yl}-benzenesulfonamide] | 246
5 | Cc1cc(-c2cc(C(F)(F)F)nc(-c3nc(-c4ccc(N)nc4)no3)n2)ccc1Cl [Example 107, 5-{5-[4-(4-Chloro-3-methyl-phenyl)-6-trifluoromethyl-pyrimidin-2-yl]-[1,2,4]oxadiazol-3-yl}-pyridin-2-ylamine] | 199.5
6 | Cc1cc(-c2cc(C(F)(F)F)nc(-c3ccnc(-c4ccc(N)nc4)c3)n2)ccc1Cl [Example 108, 4-[4-(4-Chloro-3-methyl-phenyl)-6-trifluoromethyl-pyrimidin-2-yl]-[2,3′]bipyridinyl-6′-ylamine] | 207
7 | Cc1cc(-c2ccc(Cl)cc2)nc(-c2cccc(-c3ccc(N)nc3)c2)n1 [Example 109, 5-{3-[4-(4-Chloro-phenyl)-6-methyl-pyrimidin-2-yl]-phenyl}-pyridin-2-ylamine] | 168.5
8 | Cc1cc(-c2ccc(Cl)cc2)nc(-c2cccc(-c3cnc(N)nc3)c2)n1 [Example 110, 5-{3-[4-(4-Chloro-phenyl)-6-methyl-pyrimidin-2-yl]-phenyl}-pyrimidin-2-ylamine] | 228
9 | Nc1ccc(-c2cn(-c3nc(-c4ccc(C(F)(F)F)cc4)cc(C(F)(F)F)n3)cn2)cc1 [Example 111, 4-{1-[4-Trifluoromethyl-6-(4-trifluoromethyl-phenyl)-pyrimidin-2-yl]-1H-imidazol-4-yl}-phenylamine] | 270
10 | Cc1cc(-c2ccc(Cl)cc2)nc(-c2ccnc(-c3ccc(N)nc3)c2)n1 [Example 112, 4-[4-(4-Chloro-phenyl)-6-methyl-pyrimidin-2-yl]-[2,3′]bipyridinyl-6′-ylamine] | 199
11 | Cc1cc(-c2ccc(C(F)(F)F)cc2)nc(-c2ccnc(-c3ccc(N)nc3)c2)n1 [Example 113, 4-[4-Methyl-6-(4-trifluoromethyl-phenyl)-pyrimidin-2-yl]-[2,3′]bipyridinyl-6′-ylamine] | 232
12 | Cc1cc(-c2ccc(C(F)(F)F)cc2)nc(-c2cccc(-c3cnc(N)nc3)c2)n1 [Example 115, 5-{3-[4-Methyl-6-(4-trifluoromethyl-phenyl)-pyrimidin-2-yl]-phenyl}-pyrimidin-2-ylamine] | 290
13 | Cc1cc(-c2ccc(C(F)(F)F)cc2)nc(-c2cccc(-c3ccc(N)nc3)c2)n1 [Example 116, 5-{3-[4-Methyl-6-(4-trifluoromethyl-phenyl)-pyrimidin-2-yl]-phenyl}-pyridin-2-ylamine] | 224
14 | Nc1ccc(-c2cccc(-c3nc(-c4ccc(C(F)(F)F)cc4)cc(C(F)(F)F)n3)c2)cc1 [Example 117, 3′-[4-Trifluoromethyl-6-(4-trifluoromethyl-phenyl)-pyrimidin-2-yl]-biphenyl-4-ylamine] | 186
15 | Cc1cc(-c2ccc(C(F)(F)F)cc2)nc(-c2nc(-c3ccc(S(N)(=O)=O)cc3)no2)n1 [Example 118, 4-{5-[4-Methyl-6-(4-trifluoromethyl-phenyl)-pyrimidin-2-yl]-[1,2,4]oxadiazol-3-yl}-benzenesulfonamide] | 326
16 | Cc1cc(-c2cc(C(F)(F)F)nc(-c3cccc(-c4ccc(N)nc4)c3)n2)ccc1C(F)(F)F [Example 119, 5-{3-[4-(3-Methyl-4-trifluoromethyl-phenyl)-6-trifluoromethyl-pyrimidin-2-yl]-phenyl}-pyridin-2-ylamine] | 207
17 | Cc1cc(-c2cc(C(F)(F)F)nc(-n3cnc(-c4ccc(N)nc4)c3)n2)ccc1C(F)(F)F [Example 120, 5-{1-[4-(3-Methyl-4-trifluoromethyl-phenyl)-6-trifluoromethyl-pyrimidin-2-yl]-1H-imidazol-4-yl}-pyridin-2-ylamine] | 290
18 | Cc1cc(-c2cc(C(F)(F)F)nc(-c3ccnc(-c4ccc(N)nc4)c3)n2)ccc1C(F)(F)F [Example 121, 4-[4-(3-Methyl-4-trifluoromethyl-phenyl)-6-trifluoromethyl-pyrimidin-2-yl]-[2,3′]bipyridinyl-6′-ylamine] | 223
19 | Cc1cc(-c2ccc(C(F)(F)F)c(C)c2)nc(-n2cnc(-c3ccc(N)nc3)c2)n1 [Example 122, 5-{1-[4-Methyl-6-(3-methyl-4-trifluoromethyl-phenyl)-pyrimidin-2-yl]-1H-imidazol-4-yl}-pyridin-2-ylamine] | 247.5
20 | Cc1cc(-c2ccc(C(F)(F)F)c(C)c2)nc(-n2cnc(-c3cnc(N)nc3)c2)n1 [Example 123, 5-{1-[4-Methyl-6-(3-methyl-4-trifluoromethyl-phenyl)-pyrimidin-2-yl]-1H-imidazol-4-yl}-pyrimidin-2-ylamine] | 248
21 | Cc1cc(-c2cc(C(F)(F)F)nc(-c3cccc(-c4cnc(N)nc4)c3)n2)ccc1C(F)(F)F [Example 124, 5-{3-[4-(3-Methyl-4-trifluoromethyl-phenyl)-6-trifluoromethyl-pyrimidin-2-yl]-phenyl}-pyrimidin-2-ylamine] | 244
22 | Cc1cc(-c2cc(C(F)(F)F)nc(-n3cnc(-c4cnc(N)nc4)c3)n2)ccc1C(F)(F)F [Example 125, 5-{1-[4-(3-Methyl-4-trifluoromethyl-phenyl)-6-trifluoromethyl-pyrimidin-2-yl]-1H-imidazol-4-yl}-pyrimidin-2-ylamine] | 297
23 | Cc1cc(-c2ccc(C(F)(F)F)cc2)nc(-c2nc(-c3cccc(S(N)(=O)=O)c3)no2)n1 [Example 126, 3-{5-[4-Methyl-6-(4-trifluoromethyl-phenyl)-pyrimidin-2-yl]-[1,2,4]oxadiazol-3-yl}-benzenesulfonamide] | 240.5
24 | Cc1cc(-c2ccc(C(F)(F)F)cc2)nc(-c2nc(-c3ccc(N)nc3)no2)n1 [Example 127, 5-{5-[4-Methyl-6-(4-trifluoromethyl-phenyl)-pyrimidin-2-yl]-[1,2,4]oxadiazol-3-yl}-pyridin-2-ylamine] | 216.5
25 | Cc1cc(-c2cc(C(F)(F)F)nc(-c3nc(-c4ccc(S(N)(=O)=O)cc4)no3)n2)ccc1C(F)(F)F [Example 128, 4-{5-[4-(3-Methyl-4-trifluoromethyl-phenyl)-6-trifluoromethyl-pyrimidin-2-yl]-[1,2,4]oxadiazol-3-yl}-benzenesulfonamide] | 261
